In patent publication EP2604265A1, “P2x7 antagonists as frontline or adjunctive treatment against status epilepticus” (Royal College of Surgeons in Ireland (RCSI), priority 2011, dated 2013):

Columns and labels:
[1] = tested on: Adult male C57BL/6 mice; assay: Intra-amygdala KA-induced SE in mice, EEG, drug i.c.v. immediately prior to KA; format: in vivo; conditions: i.c.v. co-injection immediately prior to intra-amygdala KA; vs vehicle (antibody vs control IgG); lorazepam at 40 min
Protocol: (§1) Adult male C57BL/6 mice (20-25 g) were obtained from Harlan UK (Blackthorn, UK). Mice were first anesthetized using isoflurane (3-5%) and maintained normothermic by means of a feedback-controlled heat blanket (Harvard Apparatus Ltd, Kent, UK). Mice were next placed in a stereotaxic frame and three partial craniectomies performed to affix cortical skull-mounted EEG electrodes (Bilaney Consultants Ltd, Sevenoaks, UK). EEG was recorded using a Grass Comet XL digital EEG (Medivent Ltd, Lucan, Ireland). A guide cannula was affixed (coordinates from Bregma: AP = 0.94; L = 2.85 mm) and the assembly fixed in place with dental cement. Anesthesia was then discontinued and freely moving mice were placed inside a clear perspex recording chamber. EEG recordings were commenced and after establishing baseline EEG for a few minutes, an injection cannula was lowered through the guide cannula for injection of kainic acid (KA) (Ocean Produce International, Nova Scotia, Canada) into the basolateral amygdala nucleus (0.3 µg in 0.2 µl phosphate-buffered saline). Non-seizure control mice underwent the same surgical procedure but received 0.2 µl intra-amygdala vehicle. Mice were killed at different time-points (1, 4, 8 or 24 h) later and perfused with saline to remove intravascular blood components. Brains were either flash-frozen whole in 2-methylbutane at […] or perfused with 4% PFA for histopathology, or dissected on ice to obtain whole hippocampus or microdissected to obtain the different hippocampal subfields (CA1, DG and CA3).
Digitized EEG recordings were analyzed off-line using manual assessment and automated software. […] The duration of high-frequency (>5 Hz) high-amplitude (>2× baseline) polyspike discharges of ≥5 s duration (HAHFDs) was counted by a reviewer blind to treatment. Further EEG analysis was performed by uploading EEG into Labchart7 software (ADInstruments) to calculate the power spectral density (total power, a measure of the input signal's power (amplitude) over frequency) EEG spectrogram (spectral power against frequency and time).
All the following drugs were purchased from Sigma-Aldrich Ireland (Arklow, Ireland) and delivered by intracerebroventricular (i.c.v.) microinjection in 2 µl volume unless otherwise specified: Adenosine 5'-triphosphate (ATP) at 100 µM, Uridine-5'-triphosphate (UTP) at 100 µM, Uridine-5'-diphosphate (UDP) at 100 µM, 2-chloro-N6-cyclopentyladenosine (CCPA) 300 nM, Pyridoxal-phosphate-6-azophenyl-2,4-disulfonate (PPADS) at 50 µM, α,β- methylene- adenosine-5-triphosphate (α,β-meATP) at 0.1 nmol, 3-O-(4-benzoyl)benzyl-ATP (Bz-ATP) at 300 µM, Brillant Blue G (BBG) at 30 nM.
Lorazepam (Ativan®, Wyeth, Taplow, U.K.) (6 mg/kg) was administered intraperitoneally (i.p.) at 40 or 60 min after KA.
Next, a model of focal-onset SE was used to evaluate the contributions of ATP-gated receptors in vivo. Mice received intra-amygdala microinjection of KA to induce SE (Fig. 2C). […] The electroencephalogram (EEG) was recorded by using cranial electrodes (lower part of Fig. 2C). Seizures were curtailed after 40 min by the injection of lorazepam to minimize morbidity and mortality.

[2] = tested on: hippocampal neurons; assay: Luciferine-luciferase luminescence assay of extracellular ATP release; format: cell-based, mouse; conditions: primary cultures; glutamate 100 µM; NEM 500 µM pre-treatment
Protocol: Hippocampal neurons were prepared as described previously (Diaz-Hernandez et al., 2008). Briefly, hippocampi were obtained from E17 mouse embryos and, after dissection and washing three times in Ca^2+/Mg^2+-free HBSS, tissue was digested in the same solution with 0.25% trypsin for 15 min at 37°C. Hippocampi were then washed three times in Ca^2+/Mg^2+-free HBSS and dissociated with a firepolished Pasteur pipette. Cells were counted, resuspended in plating medium (MEM, 10% fetal bovine serum, 0.6% glucose) and plated at a density of 5,000 cells/cm^2 on poly-L-lysine coated coverslips (1 mg/ml). After plating, neurons were cultured for 24-72 h in neuronal culture medium (Neurobasal, B-27, glutamax-I). For biochemical experiments, hippocampal neurons were plated on polylysine-coated (1 mg/ml) 60-mm plates at a density of 200,000 cells/cm^2, and cultured for 72 h in neuronal culture medium. AraC was added at a final concentration of 5 µM after 2 days in culture. Extracellular ATP concentration was measured as previously described (Diez-Zaera et al., 2011). Neurons were grown in 6-well plates at a density of 200,000 cells/cm^2. […] In some cases, ATP release was also measured in the presence of A-438079 (1 µM). ATP concentration was determined by comparison with a calibration curve generated with ATP standards diluted in the same buffer as the samples.

[3] = tested on: Adult male C57BL/6 mice; assay: Histopathology of ipsilateral hippocampal CA3 after SE (FJB and NeuN counts); format: in vivo; conditions: 24 h after SE; drug given prior to SE; vs vehicle
Protocol: as §1
Flash-frozen brains in 2-methylbutane were sectioned at -20°C on a Leica cryostat and 12 µm sections collected at the level of dorsal hippocampus (-1.8 mm and - 2.9 mm from Bregma according to a mouse stereotaxic atlas (Paxinos and Franklin, 2001). Neuronal death was assessed using Fluoro-Jade B (FJB) staining, as previously described (Engel et al., 2010; Murphy et al., 2010). Briefly, sections were air-dried and post-fixed in formalin followed by hydrating through graded alcohols. Sections were then rinsed in distilled water and transferred to 0.006% potassium permanganate solution for 15 min. Sections were rinsed again and transferred to a 0.001% FJB solution according to manufacturer's recommendations (Chemicon Europe Ltd, Chandlers Ford, UK). After staining, sections were mounted in DPX (Sigma-Aldrich). For NeuN immunohistochemistry, sections were fixed and permeabilized, blocked in goat serum and incubated overnight with anti-NeuN antibodies (Millipore Ireland B.V., Tullagreen, Ireland) followed by incubation with goat anti-rabbit IgG antibodies coupled to AlexaFluor 568 (BioSciences Limited, Dun Laoghaire, Ireland). Sections were examined using a Nikon 2000s epifluorescence microscope under Ex/Em wavelengths of 472/520 nm (green) and 540 to 580/600 to 660 nm (red) and images captured using a Hamamatsu Orca 285 camera. Cell counts were the average of two adjacent sections for the CA3 subfield under 40x lens magnification by an observer blinded to treatment.

[4] = tested on: Adult male C57BL/6 mice; assay: Refractory SE model in mice, drugs given 60 min post-KA, EEG during the next hour; format: in vivo
Protocol: as §1
Digitized EEG recordings were analyzed off-line using manual assessment and automated software. The occurrence of high amplitude high frequency spiking during seizures is synonymous with injury-causing electrographic seizures during SE (also termed type IV electrographic seizures) (Lowenstein et al., 1991; Henshall et al., 2000). The duration of high-frequency (>5 Hz) high-amplitude (>2× baseline) polyspike discharges of ≥5 s duration (HAHFDs) was counted by a reviewer blind to treatment. Further EEG analysis was performed by uploading EEG into Labchart7 software (ADInstruments) to calculate the power spectral density (total power, a measure of the input signal's power (amplitude) over frequency) EEG spectrogram (spectral power against frequency and time).
A-438079 (3-[[5-(2,3-Dichlorophenyl)-1H-tetrazol-1-yl]methyl]pyridine hydrochloride) (50 µM) was from Tocris Biosciences (Bristol, U.K.) and the P2X7R specific antibody was from Alomone Labs (APR-008, Alomone Labs, Ltd, Jerusalem, Israel) and injected at 0.7 mg/ml. Lorazepam (Ativan®, Wyeth, Taplow, U.K.) (6 mg/kg) was administered intraperitoneally (i.p.) at 40 or 60 min after KA.
To model refractory SE, seizures were allowed to continue beyond the normal time when lorazepam is given (40 min) and instead the effects of drugs were recorded 60 min post-KA on the EEG during the next hour.

[5] = in vivo; cited from earlier work
[6] = tested on: rat models; conditions: mifepristone before or after the onset of SE; cited from earlier work
[7] = tested on: neonatal seizures; conditions: in vivo; cited from earlier work

In the case of `Nc1ncnc2c1ncn2[C@@H]1O[C@H](COP(=O)(O)OP(=O)(O)OP(=O)(O)O)[C@@H](O)[C@H]1O` [ATP, Adenosine 5'-triphosphate], the “seizure time during SE (duration of HAHFDs)” value (from here on “seizure time during SE”) [1] is reported as “significantly increased”.

With `Nc1ncnc2c1ncn2[C@@H]1O[C@H](COP(=O)(O)OP(=O)(O)OP(=O)(O)O)[C@@H](OC(=O)c2ccc(C(=O)c3ccccc3)cc2)[C@H]1O` [BzATP, 3-O-(4-benzoyl)benzyl-ATP] the “seizure time during SE” value [1] was “significant increase of seizure time”.

In the case of `OC[C@H]1O[C@@H](n2cnc3c(NC4CCCC4)nc(Cl)nc32)[C@H](O)[C@@H]1O` [CCPA, 2-chloro-N6-cyclopentyladenosine], the “seizure time during SE” value [1] is reported as “significantly reduced”.

For `CCN1C(=O)C=CC1=O` [NEM, N-Ethylmaleimide], the “ATP release from hippocampal neurons” value [2] was “ATP release was blocked”.

For `Cc1nc(N=Nc2ccc(S(=O)(=O)O)cc2S(=O)(=O)O)c(COP(=O)(O)O)c(C=O)c1O` [PPADS, Pyridoxal-phosphate-6-azophenyl-2,4-disulfonate], the “seizure time during SE” value [1] was “only a weak, non-significant effect”, the “Counts of surviving CA3 neurons (NeuN)” value [3] was “not protective” and the “FJB-positive cells within the CA3 subfield (neuronal death)” value [3] was “did not afford protection”.

With `O=c1ccn([C@@H]2O[C@H](COP(=O)(O)OP(=O)(O)O)[C@@H](O)[C@H]2O)c(=O)[nH]1` [UDP, Uridine-5'-diphosphate] the “seizure time during SE” value [1] was “no differences in seizure time”.

With `O=c1ccn([C@@H]2O[C@H](COP(=O)(O)OP(=O)(O)OP(=O)(O)O)[C@@H](O)[C@H]2O)c(=O)[nH]1` [UTP, Uridine-5'-triphosphate] the “seizure time during SE” value [1] was “no differences in seizure time”.

With `N[C@@H](CCC(=O)O)C(=O)O` [glutamate] the “ATP release from hippocampal neurons” value [2] was “induced the rapid release of ATP”.

With `O=C1Nc2ccc(Cl)cc2C(c2ccccc2Cl)=NC1O` (stereo not drawn) [lorazepam, Lorazepam] the “total seizure time (duration of HAHFDs)” value ([4]; given 60 min after KA, 60 min recording, vs vehicle) was “failed to significantly reduce”, the “total seizure power (total EEG power)” value ([4]; given 60 min after KA, vs vehicle) was “significant reduction” and the “mice continued in SE” value ([4]; given alone 60 min after KA, number of mice / group) was 4/7. For the same compound, the reduction in power ([4]; total power analysis, Fig. 9C, given 60 min after KA, compared to Veh) was roughly 50% and the duration of action [5] was 2 to 8 h.

For `CC#C[C@]1(O)CC[C@H]2[C@@H]3CCC4=CC(=O)CCC4=C3[C@@H](c3ccc(N(C)C)cc3)C[C@@]21C` [mifepristone], the efficiency of diazepam [6] is given as “increases efficiency of diazepam”.

In the case of `CCC1(c2ccccc2)C(=O)NC(=O)NC1=O` [phenobarbitone], the “cases in which neonatal seizures are not stopped” value [7] is given as “over 50%”.

For `Nc1ncnc2c1ncn2C1OC(COP(=O)(O)CP(=O)(O)OP(=O)(O)O)C(O)C1O` (stereo not drawn) [α/β-methylATP, α,β-methylene-adenosine-5-triphosphate], the “seizure time during SE” value [1] was “no differences in seizure time”.
